Measurements reported in BindingDB's records for doi:10.1074/jbc.M113.514067 (Genentech, 2014).

biological target: Proprotein convertase subtilisin/kexin type 9 (Homo sapiens, UniProt Q8NBP7); test: PCSK9 Inhibition Assay
Description: For the peptide affinity determinations, biotinylated PCSK9 was immobilized to NeutrAvidin-coated MaxiSorp Immuno-Plates and incubated with a mixture of serially diluted synthetic peptide (Pep2-2 or Pep2 at 0-100 μM) and the correspondingpeptide-displaying phage at the earlier determined subsaturating concentration (see above). After a 1-h incubation in PBT buffer (PBS, 0.5% BSA, 0.05% Tween 20), the plate was washed extensively, and the bound phage was detected by anti-M13-HRP. The data were fitted to a four-parameter equation (KaleidaGraph) to determine the IC50 values. For IC50 measurements of the Pep2-2 derivatives (Fig. 1C) and for the truncated Pep2-8 peptides (Table 1), we used the peptides in a concentration range of 0-250 μM and the Pep2-2-displaying phage at subsaturating concentrations.

Sequence of Proprotein convertase subtilisin/kexin type 9 (Q8NBP7 31-152 limits assumed): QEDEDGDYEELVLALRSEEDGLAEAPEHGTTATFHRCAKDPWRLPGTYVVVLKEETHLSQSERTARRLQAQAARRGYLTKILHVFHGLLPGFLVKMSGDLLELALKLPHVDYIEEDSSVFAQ
Sequence of Proprotein convertase subtilisin/kexin type 9 (Q8NBP7 153-692 limits assumed): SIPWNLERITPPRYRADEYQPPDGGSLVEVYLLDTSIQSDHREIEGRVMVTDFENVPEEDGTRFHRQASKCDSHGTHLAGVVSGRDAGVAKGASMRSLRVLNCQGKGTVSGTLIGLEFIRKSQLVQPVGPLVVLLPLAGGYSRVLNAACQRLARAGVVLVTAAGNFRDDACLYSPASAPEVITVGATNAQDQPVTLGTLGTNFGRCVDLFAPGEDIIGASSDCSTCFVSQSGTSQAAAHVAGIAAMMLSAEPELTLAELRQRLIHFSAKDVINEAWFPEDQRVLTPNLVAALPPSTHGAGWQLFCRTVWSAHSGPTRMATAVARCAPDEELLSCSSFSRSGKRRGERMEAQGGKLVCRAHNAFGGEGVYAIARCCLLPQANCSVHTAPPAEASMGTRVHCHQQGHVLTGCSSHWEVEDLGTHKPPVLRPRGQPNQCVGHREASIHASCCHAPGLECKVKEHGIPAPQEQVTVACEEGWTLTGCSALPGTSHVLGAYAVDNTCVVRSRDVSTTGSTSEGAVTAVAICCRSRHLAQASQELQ

Compound	IC50 [µM]
CC(=O)N[C@H](C(=O)N[C@H](C(=O)N[C@@H](Cc1ccccc1)C(=O)N[C@H](C(=O)N[C@@H](CO)C(=O)N[C@@H](Cc1c[nH]c2ccccc12)C(=O)N[C@@H](CCC(=O)O)C(=O)N[C@@H](CCC(=O)O)C(=O)N[C@@H](Cc1ccc(O)cc1)C(=O)N[C@@H](CC(C)C)C(=O)N[C@@H](CC(=O)O)C(=O)N[C@@H](Cc1c[nH]c2ccccc12)C(=O)N[C@H](C(N)=O)C(C)C)[C@@H](C)O)C(C)C)[C@@H](C)O [TVFTSWEEYLDWV]	1.4
Ac-TVFTSWEEYLLWV-NH2 [TVFTSWEEYLLWV]	0.76
Ac-VFTSWEEYLLWV-NH2 [VFTSWEEYLLWV]	4
Ac-VVFTSWQDYLFWV-NH2 [VVFTSWQDYLFWV]	37.7

Further compounds by falling IC50, results first:

IC50 [µM]	Compound
17.6	Ac-TVFTSWEEYL-NH2 [TVFTSWEEYL]
10	Ac-TVFTSWEEYLL-NH2 [TVFTSWEEYLL]
6.2	Ac-TVFTSWEEYLLW-NH2 [TVFTSWEEYLLW]
